{
  "source": "patent US20170029454A1",
  "about": "“NKT CELL LIGANDS AND METHODS OF USE” (THE SCRIPPS RESEARCH INSTITUTE, priority 2013, published 2017)",
  "key": {"L363 antibody": {"biological_target": "L363 antibody", "assay": "Surface plasmon resonance: binding of immobilized L363 antibody to CD1d-lipid complexes", "conditions": "for Affinity Kd (Kdiss/Kass) / Kdiss (L363 binding to CD1d-lipid complex) / pKd: lipid loaded on mCD1d, single cycle SPR, Biacore T200; for pKd: read-out: Affinity Kd (Kdiss/Kass); for binding of L363 to lipid loaded into CD1d: SPR", "description": "Single cycle analysis was performed on CM5 chips using 250-1000 RUs of immobilized antibody and increasing concentrations of CD1-lipid complexes.\n(§1) A Biacore T200 instrument (GE Healthcare, Pittsburgh, Pa.) was used for SPR measurements. Measurements were performed using single cycle protocols to avoid repeated use of regeneration buffer on the immobilized ligands. Immobilization of target antibodies was carried out using classical amine coupling chemistry. 250 to 1,000 RU of antibody was immobilized in each flow cell. All mCD1-lipid complexes were purified after loading to ensure maximal homogeneity and avoid the presence of small amounts of aggregated material. Concentrations ranging from […] were used for each CD1-lipid complex. Flow cell one was used as a negative control and used for subtraction from experimental flow cells. Global analysis of subtracted sensorgrams was carried out using the T200 analysis software.\nas §1, with “(available from GE” for “(GE”, “cells (L363 antibody—control antibody).” for “cells.”"}, "DN32.D3 NKT cells": {"tested_on": "DN32.D3 NKT cells", "assay": "T cell activation assay (IL-2 production) with Vα14 NKT hybridoma DN32.D3", "type": "cell-based", "conditions": "for effect on stimulation of NKT cells, FIG. 10 legend: DC3.2 cells treated with recombinant TNFα (legend FIG. 10); for effect on stimulation of NKT cells in the context of TNFα stimulation: DC3.2 cells, TNFα stimulation (FIG. 11); for effect on stimulation of NKT cells by DCs: non-differentiated and LPS-treated DC3.2 cells, 1-deoxygalactonojirimycin 0.5 μM, 1-deoxygluconojirimycin 2.0 μM; for effect of ceramidase inhibition on stimulatory activity towards NKT cells: untreated or LPS-treated DC3.2 cells, 24 h", "description": "T cell hybridoma cells were cultured in RPMI supplemented with 10% FCS, 2 mM L-glutamine, 20 mM HEPES, and non-essential amino acids. Antigen presentation assays were carried out using 5-20×10^3 DC 3.2 cells or 1×10^5 splenocytes and 4×10^4 T cells per well in 96 well tissue culture plates in triplicates. Cell culture supernatants were collected 24 h later for determination of IL-2 concentrations using an IL-2-dependent NK cell line reporter system. NKT cells have a memory phenotype and hallmarks of “pre-activation” when analyzed ex vivo. In vitro they have been described as being highly autoreactive by their propensity at being activated by syngeneic target cells expressing CD1d molecules (Bendelac et al. 2007, Annual Rev. Immuno., 25:297; Park et al., 1998, J. Immunol., 160:3128). This phenomenon can be illustrated by the activation of Vα14 NKT hybridoma cell DN32.D3 against RBL-CD1, a CD1d positive cell line, that have been stimulated by […] ligands. Stimulation of DN32.D3 cells and TBA.7 cells, a non-Vα14 NKT cell hybridoma, was tested against RBL-CD1 or RBL-CD1 SAP^-/- in which […] expression was knocked down by interfering RNAs. The hybridoma cells were cultured in RPMI supplemented with 10% FCS, 2 mM L-glutamine, 20 mM HEPES, and non-essential amino acids. Antigen presentation assays were carried out using 5-20×10^3 DC 3.2 cells or 1×10^5 splenocytes and 4×10^4 T cells per well in 96-well tissue culture plates in triplicates. Cell culture supernatants were collected 24 h later for determination of IL-2 concentrations using an IL-2-dependent NK cell line reporter system. […] The results are shown in FIGS. 14A-E. A control (open circles) was included for comparison with each inhibitor (filled circles)."}, "ASAHL (NAAA)": {"biological_target": "T1, ASAHL (NAAA) (Homo sapiens, UniProt Q02083)", "T1 sequence (Q02083 29-359)": "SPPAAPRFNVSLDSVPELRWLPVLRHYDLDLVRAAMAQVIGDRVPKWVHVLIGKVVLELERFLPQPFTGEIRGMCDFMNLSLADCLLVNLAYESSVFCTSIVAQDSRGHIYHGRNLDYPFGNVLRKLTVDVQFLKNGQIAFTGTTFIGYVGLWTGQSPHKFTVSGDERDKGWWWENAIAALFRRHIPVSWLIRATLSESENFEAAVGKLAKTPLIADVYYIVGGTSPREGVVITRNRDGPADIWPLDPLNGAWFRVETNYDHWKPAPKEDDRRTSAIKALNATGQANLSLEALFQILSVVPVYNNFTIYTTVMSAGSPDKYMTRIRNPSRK", "assay": "Specific activity of the ASAHL inhibitor", "type": "biochemical", "set-up": "unit not given here"}, "DC3.2 cells": {"tested_on": "DC3.2 cells", "assay": "Toxicity of ceramidase inhibitors over a 24 h assay (viability and αGalCer presentation to DN32.D3 cells)", "type": "cell-based", "description": "In the absence of a suitable animal model, enzyme inhibitors were used to assess the role of ceramidases in the control of NKT ligands. […] In the T-cell activation assays, DC3.2 cells were differentiated with LPS and treated with inhibitors of α-glycosidases (GLAi and/or GAAi), 1-deoxygalactonojirimycin (0.5 μM) and 1-deoxygluconojirimycin (2.0 μM), respectively, or ceramidase inhibitors (NAAA/ASAHLi(27) (20 μM) or AC/ASAH1i, carmofur (1.0 μM) for 24 h and used to stimulate DN32.D3 NKT cells. The results are shown in FIGS. 14A-E. A control (open circles) was included for comparison with each inhibitor (filled circles)."}, "CD1d": {"biological_target": "T2, CD1d (Mus musculus, UniProt P11609)", "T2 sequence (P11609 19-297 limits assumed)": "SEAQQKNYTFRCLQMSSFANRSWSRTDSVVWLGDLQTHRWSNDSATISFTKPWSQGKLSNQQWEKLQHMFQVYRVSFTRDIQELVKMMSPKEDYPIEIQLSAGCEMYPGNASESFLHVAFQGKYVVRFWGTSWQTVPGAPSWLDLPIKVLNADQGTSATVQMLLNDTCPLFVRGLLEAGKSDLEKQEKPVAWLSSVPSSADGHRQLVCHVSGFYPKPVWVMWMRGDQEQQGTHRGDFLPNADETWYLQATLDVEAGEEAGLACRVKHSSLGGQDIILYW", "T2 sequence (P01887 21-119 partner)": "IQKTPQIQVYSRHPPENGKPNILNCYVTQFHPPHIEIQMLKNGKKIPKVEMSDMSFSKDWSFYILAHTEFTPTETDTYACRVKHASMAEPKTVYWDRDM", "assay": "In vitro binding of detergent to CD1d", "conditions": "in vitro (data not shown)"}, "L317 antibody": {"tested_on": "L317 antibody", "assay": "Surface plasmon resonance: binding of L317 antibody to CD1d-lipid complexes", "conditions": "SPR", "description": "as §1\nas §1, with “(available from GE” for “(GE”, “Flow cell one was used as a negative control and used for subtraction from experimental flow cells. Global analysis of subtracted sensorgrams was carried out using the T200 analysis software.” left out"}, "[1]": {"conditions": "carmofur 1.0 μM, NAAA/ASAHLi 20 μM"}},
  "note": "pKd: −log10 of the molar value. Like-named read-outs stand apart in the source and are kept apart here.",
  "data": [
    {"compound": "CCCCCCCCCCCCCC[C@@H](O)C(O)[C@@H](N)COC1OC(CO)C(O)C(O)C1O", "note": "(stereo partly drawn)", "values": [
      {"measurement": "Affinity Kd (Kdiss/Kass)", "setting": "L363 antibody", "value": "N.M."}
    ]},
    {"compound": "OC[C@H]1NC[C@H](O)[C@@H](O)[C@H]1O", "note": "[1-deoxygalactonojirimycin]", "values": [
      {"measurement": "effect on stimulation of NKT cells, FIG. 10 legend", "setting": "DN32.D3 NKT cells", "value": "induced or increased stimulation of NKT cells"},
      {"measurement": "effect on stimulation of NKT cells in the context of TNFα stimulation", "setting": "DN32.D3 NKT cells", "value": "did not increase stimulation of NKT cells"},
      {"measurement": "effect on stimulation of NKT cells by DCs", "setting": "DN32.D3 NKT cells", "value": "induced or increased a robust stimulation of NKT cells"}
    ]},
    {"compound": "OC[C@H]1NC[C@H](O)[C@@H](O)[C@@H]1O", "note": "[1-deoxygluconojirimycin]", "values": [
      {"measurement": "effect on stimulation of NKT cells, FIG. 10 legend", "setting": "DN32.D3 NKT cells", "value": "induced or increased stimulation of NKT cells"},
      {"measurement": "effect on stimulation of NKT cells in the context of TNFα stimulation", "setting": "DN32.D3 NKT cells", "value": "did not increase stimulation of NKT cells"},
      {"measurement": "effect on stimulation of NKT cells by DCs", "setting": "DN32.D3 NKT cells", "value": "did not result in significant increase in stimulatory activity"}
    ]},
    {"compound": "O=C(CCc1ccc(-c2ccccc2)cc1)N1CCCC1", "note": "[NAAA inhibitor, 1-(2-Biphenyl-4-yl)ethyl-carbonyl pyrrolidine]", "values": [
      {"measurement": "effect on stimulatory activity of thymocytes towards DN32.D3", "setting": "DN32.D3 NKT cells; thymocytes as APC, NAAA/ASAHLi 20 μM", "value": "no effect"},
      {"measurement": "effect of ceramidase inhibition on stimulatory activity towards NKT cells", "setting": "DN32.D3 NKT cells; [1]", "value": "very limited but reproducible increase in stimulatory activity"},
      {"measurement": "specific activity of the inhibitor of ASAHL", "setting": "ASAHL (NAAA)", "value": "10-200"}
    ]},
    {"compound": "CCCCCCCCCCCCCC(=O)N[C@H](CO)[C@H](O)c1ccc([N+](=O)[O-])cc1", "note": "[NMAPPD, N-[(1R,2R)-2-hydroxy-1-(hydroxymethyl)-2-(4-nitrophenyl)ethyl]-tetradecanamide]", "values": [
      {"measurement": "toxicity over a 24 h assay", "setting": "DC3.2 cells", "value": "too much toxicity"}
    ]},
    {"compound": "CCCCCCCCCCCC1(C)OCC(COCCCS(=O)(=O)[O-])O1.[Na+]", "note": "(stereo not drawn) [Sodium 3-[(2-methyl-2-undecyl-1,3-dioxolan-4-yl)methoxy]-1-propanesulfonate]", "values": [
      {"measurement": "binding to CD1d", "setting": "CD1d", "value": "not bind CD1d to any measurable extent"}
    ]},
    {"compound": "CCCCCCNC(=O)n1cc(F)c(=O)[nH]c1=O", "note": "[carmofur, 1-Hexylcarbamoyl-5-fluorouracil]", "values": [
      {"measurement": "increase of stimulatory activity of thymocytes towards DN32.D3", "setting": "DN32.D3 NKT cells; thymocytes as APC, carmofur 1.0 μM", "value": 2.5, "unit": "fold"},
      {"measurement": "effect of ceramidase inhibition on stimulatory activity towards NKT cells", "setting": "DN32.D3 NKT cells; [1]", "value": "significant increase in stimulatory activity"},
      {"measurement": "toxicity over a 24 h assay", "setting": "DC3.2 cells; viability and αGalCer presentation to DN32.D3 cells after treatment", "value": "very limited cell toxicity"}
    ]},
    {"compound": "CCCCCCCC/C=C\\CCCCCCCCCCCCCC(=O)N[C@@H](COC1OC(CO)C(O)C(O)C1O)C(O)/C=C/CCCCCCCCCCCCC", "note": "(stereo partly drawn) [αGalCer24:1]", "values": [
      {"measurement": "Kdiss (L363 binding to CD1d-lipid complex)", "setting": "L363 antibody", "value": 0.05, "unit": "s⁻¹"},
      {"measurement": "pKd", "setting": "L363 antibody", "value": 6.46}
    ]},
    {"compound": "CCCCCCCCCCCCCCCCCCCCCCCCCC(=O)N[C@@H](COC1OC(CO)C(O)C(O)C1O)C(O)[C@H](O)CCCCCCCCCCCCCC", "note": "(stereo partly drawn) [αGalCer]", "values": [
      {"measurement": "Kdiss (L363 binding to CD1d-lipid complex)", "setting": "L363 antibody", "value": 0.0083, "unit": "s⁻¹"},
      {"measurement": "pKd", "setting": "L363 antibody", "value": 7.01}
    ]},
    {"compound": "CCCCCCCCCCCCC/C=C/C(O)[C@H](COC1OC(CO)C(O)C(O)C1O)NC(=O)CCCCCCCCCCCCCCCCCCCCCCCCC", "note": "(stereo partly drawn) [αGluCer]", "values": [
      {"measurement": "Kdiss (L363 binding to CD1d-lipid complex)", "setting": "L363 antibody", "value": 0.4711, "unit": "s⁻¹"},
      {"measurement": "pKd", "setting": "L363 antibody", "value": 5.30}
    ]},
    {"compound": "CCCCCCCC/C=C\\CCCCCCCCCCCCCC(=O)N[C@@H](COC1OC(CO)C(O)C(O)C1O)C(O)/C=C/CCCCCCCCCCCCC", "note": "(stereo partly drawn) [βGluCer24:1]", "values": [
      {"measurement": "Affinity Kd (Kdiss/Kass)", "setting": "L363 antibody", "value": "N.M."},
      {"measurement": "stimulatory activity towards DN32.D3 after digestion with recombinant GBA", "setting": "DN32.D3 NKT cells; GBA 2 h at 37° C., WT splenocytes 10^5 cells/well", "value": "Stimulatory activity was not changed"}
    ]},
    {"compound": "isoglobotrihexosylceramide [iGb3]", "values": [
      {"measurement": "binding of L363 to lipid loaded into CD1d", "setting": "L363 antibody", "value": "no ability to bind"},
      {"measurement": "binding of L317 to lipid loaded into CD1d", "setting": "L317 antibody", "value": "no ability to bind"}
    ]},
    {"compound": "αGal(α1-2)Galactosylceramide", "values": [
      {"measurement": "binding of L363 to lipid loaded into CD1d", "setting": "L363 antibody", "value": "no ability to bind"},
      {"measurement": "binding of L317 to lipid loaded into CD1d", "setting": "L317 antibody", "value": "no ability to bind"}
    ]}
  ]
}
